# Measurements published in patent US20230080819A1, “HERBICIDE COMBINATIONS COMPRISING GLUFOSINATE AND TIAFENACIL” (BASF SE, priority 2020, published 2023).
# Tests used:
# Format in all cases: in vivo
# Details in all cases: 20 DAT
# [1] = system: Amaranthus Palmeri (AMAPA); assay: Greenhouse post-emergence weed control, Palmer Amaranth
# Galium aparine (GALAP) = assay: Greenhouse post-emergence weed control, Cleavers
# [2] = system: Echinochloa crus-galli (ECHCG); assay: Greenhouse post-emergence weed control, barnyardgrass
# [3] = system: Amaranthus tuberculatus (AMATU); assay: Greenhouse post-emergence weed control, waterhemp
Compound,Solo % activity ([1]; Glufosinate 100 g ai/ha solo) [%],Solo % activity ([1]; Glufosinate 200 g ai/ha solo) [%],Solo % activity (Galium aparine (GALAP); Glufosinate 100 g ai/ha solo) [%],"Solo % activity ([2]; Glufosinate 50 g ai/ha solo, ECHCG) [%]","Solo % activity ([2]; Glufosinate 100 g ai/ha solo, ECHCG) [%]","Solo % activity ([3]; Glufosinate 50 g ai/ha solo, post-emergence, AMATU, 1% MSO) [%]","Solo % activity ([3]; Glufosinate 100 g ai/ha solo, AMATU) [%]","Solo % activity ([3]; Glufosinate 200 g ai/ha solo, AMATU) [%]",Solo % activity ([1]; Tiafenacil 0.15 g ai/ha solo) [%],Solo % activity ([1]; Tiafenacil 1.5 g ai/ha solo) [%],Solo % activity (Galium aparine (GALAP); Tiafenacil 0.5 g ai/ha solo) [%],"Solo % activity ([2]; Tiafenacil 0.5 g ai/ha solo, ECHCG (Table 3)) [%]","Solo % activity ([2]; Tiafenacil 0.5 g ai/ha solo, ECHCG (Table 7)) [%]","Solo % activity ([3]; Tiafenacil 1.5 g ai/ha solo, AMATU (Table 2)) [%]","Solo % activity ([3]; Tiafenacil 1.5 g ai/ha solo, AMATU (Table 5)) [%]","Solo % activity ([3]; Tiafenacil 1.5 g ai/ha solo, post-emergence, AMATU, 1% MSO) [%]"
"CP(=O)(O)CCC(N)C(=O)O (racemic) [Glufosinate, (2RS)-2-amino-4-[hydroxy(methyl)phosphinoyl]butyric acid]",25,75,60,10,25,10,10,70,–,–,–,–,–,–,–,–
"COC(=O)CCNC(=O)C(C)Sc1cc(-n2c(=O)cc(C(F)(F)F)n(C)c2=O)c(F)cc1Cl (stereo not shown) [Tiafenacil, tiafenacil]",–,–,–,–,–,–,–,–,0,25,0,10,10,15,15,15
